Publication PMC10265916, “Elraglusib (formerly 9-ING-41) possesses potent anti-lymphoma properties which cannot be attributed to GSK3 inhibition” (Cell Communication and Signaling : CCS, 2023)

How the values were obtained:
Type in all cases: biochemical
[1] = target: T1, MST2 (serine/threonine-protein kinase 3, STK3) (Homo sapiens, UniProt Q13188); assay: […] cell-free kinase screen, […] inhibition at […]
T1 sequence (Q13188 1-491): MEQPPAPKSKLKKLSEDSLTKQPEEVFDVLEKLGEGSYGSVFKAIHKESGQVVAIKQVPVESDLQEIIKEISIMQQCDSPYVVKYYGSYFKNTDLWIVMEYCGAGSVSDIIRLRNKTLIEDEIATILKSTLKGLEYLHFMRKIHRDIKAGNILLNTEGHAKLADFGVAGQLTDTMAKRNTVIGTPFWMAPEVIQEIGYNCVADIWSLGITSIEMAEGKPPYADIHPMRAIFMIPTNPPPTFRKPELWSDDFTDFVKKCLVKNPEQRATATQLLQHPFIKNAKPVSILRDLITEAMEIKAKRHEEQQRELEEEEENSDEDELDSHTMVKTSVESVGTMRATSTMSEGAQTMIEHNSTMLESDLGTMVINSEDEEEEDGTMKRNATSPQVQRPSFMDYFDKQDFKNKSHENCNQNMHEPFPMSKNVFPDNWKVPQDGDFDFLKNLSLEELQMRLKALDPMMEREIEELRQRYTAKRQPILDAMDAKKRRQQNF

[2] = target: PIM1 (proto-oncogene serine/threonine-protein kinase 1) (Homo sapiens, UniProt P11309); assay: […] cell-free kinase screen, […] inhibition at […]
Chain of PIM1 (proto-oncogene serine/threonine-protein kinase 1) (P11309 whole entry): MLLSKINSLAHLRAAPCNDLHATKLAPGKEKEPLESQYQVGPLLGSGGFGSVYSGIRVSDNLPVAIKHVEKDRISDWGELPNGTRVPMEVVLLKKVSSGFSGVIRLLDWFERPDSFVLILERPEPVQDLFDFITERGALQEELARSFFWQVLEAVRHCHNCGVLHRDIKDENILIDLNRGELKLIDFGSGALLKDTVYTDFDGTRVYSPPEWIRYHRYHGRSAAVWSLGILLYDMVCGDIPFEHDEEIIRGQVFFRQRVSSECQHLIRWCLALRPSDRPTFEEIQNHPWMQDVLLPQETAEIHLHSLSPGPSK

[3] = target: PIM3 (proto-oncogene serine/threonine-protein kinase 3) (Homo sapiens, UniProt Q86V86); assay: […] cell-free kinase screen, […] inhibition at […]
[4] = target: T2, GSK3β (Homo sapiens, UniProt P49841); assay: in vitro GSK3β kinase assay (IC50) and […] cell-free kinase screen
T2 construct: gene GSK3B
T2 sequence (P49841 whole entry): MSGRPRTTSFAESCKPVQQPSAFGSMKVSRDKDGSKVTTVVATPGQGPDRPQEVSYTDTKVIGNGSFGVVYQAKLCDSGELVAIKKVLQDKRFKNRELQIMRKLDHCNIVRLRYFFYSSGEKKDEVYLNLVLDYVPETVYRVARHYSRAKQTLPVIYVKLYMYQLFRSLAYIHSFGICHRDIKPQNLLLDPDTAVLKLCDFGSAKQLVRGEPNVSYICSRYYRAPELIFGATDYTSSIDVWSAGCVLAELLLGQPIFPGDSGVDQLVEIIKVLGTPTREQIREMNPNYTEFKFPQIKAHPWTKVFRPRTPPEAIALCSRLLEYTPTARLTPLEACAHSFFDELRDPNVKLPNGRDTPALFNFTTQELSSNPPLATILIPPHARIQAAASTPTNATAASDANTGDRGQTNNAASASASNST

Cn1cc(C2=C(c3coc4ccc(F)cc34)C(=O)NC2=O)c2cc3c(cc21)OCO3 [elraglusib]
inhibition at 5 µM [1]: > 50% | inhibition at 5 µM [2]: > 50% | inhibition at 5 µM [3]: > 50% | IC50 [4]: 370 nM
